# Assay results from patent publication US10774080B2, “Pyrimidine compound as JAK kinase inhibitor” (THERAVANCE BIOPHARMA R&D IP, LLC, priority 2017, dated 2020).
# “Also recorded” adds a separate entry of the source. Read-outs that look alike come from different tables or passages of the source.
# Experiments:
# [1] = test system: CXCL10 gene expression; assay: Assay 7: ex vivo JAK PD assay, freshly excised human skin, CXCL10; conditions: 0.5% ointment, about 40 hours continuous exposure, Th1-skewed stimulation (TNFα, IFNγ, IL-12), vs vehicle
# Description: Assay 7: Ex Vivo JAK Pharmacodynamic (PD) Assay Using Human Freshly Excised Skin An ex vivo JAK pharmacodynamics (PD) assay was conducted using human isolated skin tissue. The PD assay used fresh human skin (dermatome of 750 μm thickness) that was mounted in static Franz cells with a surface area of ˜0.5 cm^2. The receiver chambers of the Franz cells were filled with warm (37° C.) cornification media and placed in an incubator at 37° C. The skin was topically dosed with 10 μL ([…]) of compound (I) or vehicle and was left undisturbed overnight (˜24 hours). The next day, with no re-application of the test compound or vehicle, the media was replaced with a Th1-skewed stimulation cocktail consisting of TNFα, IFNγ and IL-12. The skin was left undisturbed for an additional 16 hours, and then harvested and processed for RNA extraction and qPCR of biomarkers: CXCL10, CCL2. GAPDH was used as an internal standard. The compound (I) was formulated in an ointment formulation at 0.5% strength. A total of three skin donors (tested in quadruplicates/sample/treatment) were used. Treatment effect was calculated as the percent increase or decrease in stimulation compared to the vehicle group. [table]
# [2] = test system: IL-12 induced STAT4 phosphorylation in human CD3+ T cells; assay: Assay 12: inhibition of IL-12-induced STAT4 phosphorylation in human CD3+ T cells; format: cell-based; conditions: T-cell, read-out: pIC50 for inhibition of IL-12 induced STAT4 phosphorylation (converted)
# Description: Assay 12: Inhibition of IL-12-Induced STAT4 Phosphorylation in Human CD3+ T Cells
# This cellular potency assay for JAK inhibition was carried out by measuring interleukin-12 (IL-12, R&D Systems) induced STAT4 phosphorylation in human CD3^+ T cells. The CD3 antibody (Becton Dickinson (BD) Biosciences) was conjugated to R-Phycoerythrin (R-PE). The pSTAT4 antibody (pTyr641, BD Biosciences) was conjugated with Alexa Fluor 647.
# Human peripheral blood mononuclear cells were cultured at 37° C. in a 5% CO2 humidified incubator in RPMI medium (Life Technologies) supplemented with 10% FBS (Life Technologies), 100 U/mL penicillin, 100 μg/mL streptomycin (Life Technologies), 2 mM GlutaMAX (Life Technologies), plate bound anti CD3 (5 μg/mL, UCHT1, BD Biosciences) and soluble anti-CD28 (1 μg/mL, CD28.2, BD Biosciences) for 3 days. Cells were then resuspended in RPMI medium (Life Technologies) supplemented with 10% FBS (Life Technologies), 100 U/mL penicillin, 100 μg/mL streptomycin (Life Technologies), 2 mM GlutaMAX (Life Technologies) and 10 ng/mL interleukin-2 (IL-2, R&D Systems) for an additional 3 days. […] For dose-response analysis, mean fluorescence intensity values were plotted vs. compound concentrations, and IC50 values were determined from a 4-parameter robust fit model with the Prism software.
# [3] = test system: TPA-induced increase in ear thickness; assay: Assay 10: in vivo TPA-induced acute dermatitis model in mice; parameters: species or system female Balb/c mice
# Description: Assay 10: In Vivo TPA-Induced Acute Dermatitis Model in Mice
# The objective of this assay is to assess the anti-inflammatory effect of compound (I), in a model of acute dermatitis being studied for cutaneous inflammatory conditions such as atopic dermatitis (Dong et al., J Pharmacol Exp Ther, 2013, 344, 436-446).
# Topical dermal application of phorbol ester TPA in mice causes an inflammatory response that is characterized by edema and neutrophil influx at the early phase (2-24 h) and by epidermal cell proliferation at the later phase (24-48 h) (Griffiths et al., Agents and Actions, 1988, 25, 344-351). In this model, female Balb/c mice were topically administered with 20 μl/ear of either vehicle or TPA (2.5 μg). For the solution formulation, vehicle (1:7 DMSO:Acetone) or test compound was topically applied 30 min before and 15 min after TPA administration. For the ointment formulation, vehicle or compound (I) (0.5% strength) was applied 30 min before TPA. The degree of inflammation was assessed as the change in ear thickness at 6 hours after TPA application.
structure (smiles),measurement,setting,value
"CCS(=O)(=O)N1[C@@H]2CCC[C@H]1C[C@H](N(C)c1nc(CO)c(F)c(Nc3cc(C)[nH]n3)n1)C2 [Compound (I), (2-(((1R,3s,5S)-9-(ethylsulfonyl)-9-azabicyclo[3.3.1]nonan-3-yl)(methyl)amino)-5-fluoro-6-((5-methyl-1H-pyrazol-3-yl)amino)pyrimidin-4-yl)methanol]",PD-% Inhibition (mean ± SD) CXCL10,[1],90.1%
same,IC50,[2],63.1 nM
same,Inhibition of TPA-induced increase in ear thickness (mean % inh ± SEM (n)),[3],34.9%
same,Inhibition of TPA-induced increase in ear thickness (mean % inh ± SEM (n)),"[3]; 30 μg/ear dosed as solution, 6 hours after TPA",6.6% ± 1.1%
same,Inhibition of TPA-induced increase in ear thickness (mean % inh ± SEM (n)),"[3]; 100 μg/ear dosed as solution, 6 hours after TPA",2.4% ± 0.7%
same,Inhibition of TPA-induced increase in ear thickness (mean % inh ± SEM (n)),"[3]; 300 μg/ear dosed as solution, 6 hours after TPA",35.5% ± 3.1%
same,Inhibition of TPA-induced increase in ear thickness (mean % inh ± SEM (n)),"[3]; 1000 μg/ear dosed as solution (highest dose), 6 hours after TPA",54.8 ± 2.6%
same,Inhibition of TPA-induced increase in ear thickness (mean % inh ± SEM (n)),"[3]; 0.5% Ointment, 20 μl/ear, 30 min before TPA, 6 hours after TPA",34.9% ± 3.3% (12)
same,effect on TPA-induced increase in ear thickness (in words),[3]; dosed as a solution,dose-dependent effect; also recorded: dose dependent manner
